# Experiment: PK studies in mice
# Format: in vivo
# Settings: male CD1 mice (n = 3), oral gavage, cassette dose 10 mg/kg each
# Experimental: A total number of 3 adult male RjOrl:Swiss (CD-1) mice were housed in a temperature-controlled room (20–24 °C) and maintained in a 12 h light/12 h dark cycle. Food and water were provided ad libitum. All experimental procedures were approved by and conducted in accordance with the regulations of the local Animal Welfare authorities (Landesamt für Gesundheit and Verbraucherschutz, Abteilung Lebensmittel- and Veterinärwesen, Saarbrücken). At each time point a volume of 100–150 μL Li-heparin whole blood, i.e. 40–50 μL Li-heparin plasma, was collected from the retrobulbar venous plexus under short isoflurane anesthesia. The plasma samples were prepared within 45 min after collection, frozen at −20 °C and stored at this temperature until processed for LC–MS analysis. The PK studies were performed by the CRO Pharmacelsus GmbH under the protocol number 2021UFM002.
# [1] = CD-1 (RjOrl:Swiss), mouse, plasma
compound,measurement,setting,value
"CCC1(CC(=O)O)OCCc2c1[nH]c1c(Cc3ccccc3)cc(F)cc21 (stereo not shown) [Compound 51, 2-(8-Benzyl-1-ethyl-6-fluoro-1,3,4,9-tetrahydropyrano[3,4-b]indol-1-yl)acetic Acid]",AUC(0-inf),[1],59300 ng·h/mL
same,CL/F,[1],2.82 mL/min/kg
same,half-life,[1],11.6 h
same,AUC(0-t),"CD-1 (RjOrl:Swiss), mouse, plasma, read-out: AUC0–24",45600 ng·h/mL
same,Vd/F,"CD-1 (RjOrl:Swiss), mouse, plasma, read-out: V z/f",2.82 L/kg
same,C 24h ± CV %,,819 ± 76.7%
same,C max ± CV %,,3170 ± 58.6%
